pIC50: −log10 of the molar value.

This test deals with NCI-H295R. Description: IC50 (antiproliferative, ATP content). Particulars: 48 h. Put shortly: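 Adrenocortical carcinoma cells (1500 per well) were seeded in serum-free ITS-supplemented DMEM in 1536-well plates and cultured overnight. Library compounds were then pin-transferred at 8 final concentrations from 0.6 nM to 46 µM, and plates were kept 48 h at 37 °C, 5% CO2. ATP was read as CellTiter-Glo luminescence after 20 min at room temperature and normalised to vehicle (0%) and positive control (100% inhibition). IC50 came from four-parameter logistic fits; compounds with no concentration response were recorded as above the top dose.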
The compound `O=C1CC[C@@]2(O)[C@H]3Cc4ccc(O)c5c4[C@@]2(CCN3CC2CC2)[C@H]1O5` had a pIC50 of less than 4.34.

For `C=C[C@H]1CN2CCC1C[C@@H]2[C@@H](O)c1ccnc2ccccc12` (stereo partly specified), the negative-log IC50 (pIC50) was less than 4.34.

With `CC(/C=C/C=C(\C)C(=O)O[C@@H]1O[C@H](CO[C@@H]2O[C@H](CO)[C@@H](O)[C@H](O)[C@H]2O)[C@@H](O)[C@H](O)[C@H]1O)=C\C=C\C=C(C)\C=C\C=C(/C)C(=O)O[C@@H]1O[C@H](CO[C@@H]2O[C@H](CO)[C@@H](O)[C@H](O)[C@H]2O)[C@@H](O)[C@H](O)[C@H]1O`, the pIC50 was less than 4.34.

Take `O=C(O)c1cccnc1Nc1cccc(C(F)(F)F)c1`: the pIC50 was less than 4.34.

The compound `CC(=O)OCC(=O)NCCCOc1cccc(CN2CCCCC2)c1.Cl` showed a pIC50 of less than 4.34.

With `O=[C@](NC5=CC(C(F)(F)F)=CC=C5C(F)(F)F)[C@@H]4[C@@]3(C)CC[C@]2([H])[C@@]1(C)C=CC(N[C@@]([H])1CC[C@]([H])2[C@@]([H])3CC4)=O`, the pIC50 was less than 4.34.

For `Cl[C@]1([C@](C)2C=C3)[C@@H](O)C[C@@]([C@]([C@@](CO)=O)(O)[C@H]4C)(C)[C@](C4)([H])[C@@]([H])1CCC2=CC3=O`, the pIC50 is less than 4.34.

In turn, `COc1cc2c3cc1Oc1cc(ccc1O)C[C@@H]1c4c(cc(OC)c(O)c4Oc4ccc(cc4)C[C@@H]3N(C)CC2)CC[N+]1(C)C.Cl.[Cl-]` showed a negative logarithm of the IC50 (pIC50) of less than 4.34.

As to `N#Cc1ccc2c(c1)N(CCCN1CCC(O)CC1)c1ccccc1S2`, the negative logarithm of the IC50 (pIC50) was less than 4.34.

Take `COS(=O)(=O)[O-].C[N+]1(C)CCCCC1COC(=O)C(O)(c1ccccc1)c1ccccc1` (stereo unspecified): the pIC50 was less than 4.34.

The compound `Cc1cc(=O)oc2cc(O)ccc12` gave a pIC50 of less than 4.34.

`CC1CC(OC(=O)C(O)c2ccccc2)CC(C)(C)C1` (stereo unspecified): the negative-log IC50 (pIC50) is less than 4.34.

In turn, `CCN1C[C@]2(COC)[C@H](O)C[C@H](OC)[C@@]34[C@@H]5C[C@@]6(O)[C@H](OC(=O)c7ccccc7)[C@@H]5[C@@](OC(C)=O)([C@@H]([C@H](OC)[C@H]23)[C@H]14)[C@@H](O)[C@@H]6OC` had a negative logarithm of the IC50 (pIC50) of less than 4.34.

`ClC1=CC=C(\C3=C2/CCNCC2)C(CCC4=C3N=CC=C4)=C1` had a pIC50 of less than 4.34.

`O=C(O)CCC(=O)O.c1ccc(C2(c3ccccc3)CC2C2=NCCN2)cc1` (stereo unspecified) showed a negative-log IC50 (pIC50) of less than 4.34.

Take `CCN(CC)CCNC(=O)COc1ccc(Cl)cc1`: the negative logarithm of the IC50 (pIC50) is less than 4.34.

As to `O=C(O)COC(=O)Cc1ccccc1Nc1c(Cl)cccc1Cl`, the negative logarithm of the IC50 (pIC50) is less than 4.34.

As to `CN1C(=O)CN2CCc3ccccc3C2c2cc(Cl)ccc21` (stereo unspecified), the pIC50 is less than 4.34.

`Cc1ccc(C(C)C)c(O)c1`: the negative logarithm of the IC50 (pIC50) is less than 4.34.

The compound `NCC(O)CC(=O)O` (stereo unspecified) had a negative-log IC50 (pIC50) of less than 4.34.

Turning to `O=C(CSC#N)O[C@H]2[C@]1(C)CC[C@H](C2)[C@](C)1C`, the pIC50 is less than 4.34.

Consider `CC(C)n1c(/C=C/[C@@H](O)C[C@@H](O)CC(=O)[O-])c(-c2ccc(F)cc2)c2ccccc21.[Na+]`, for which the pIC50 is less than 4.34.

For `CC(CC=O)CCCC(C)(C)O` (stereo unspecified), the pIC50 was less than 4.34.

`Cc1onc(-c2ccccc2)c1-c1ccc(S(N)(=O)=O)cc1` gave a negative-log IC50 (pIC50) of less than 4.34.

The compound `CCN(CC)CCOc1ccc2c(c1)C(=O)c1cc(OCCN(CC)CC)ccc1-2` showed a pIC50 of less than 4.34.

Consider `Cc1ccc(Cl)c(O)c1`, for which the pIC50 was less than 4.34.

Take `OC[C@@H](O)[C@@H](O)[C@H](O)[C@H](O)CO`: the pIC50 is less than 4.34.

`CC[C@]12CCCN3CCc4c(n(c5ccccc45)[C@@](O)(C(=O)OC)C1)[C@@H]32`: the negative logarithm of the IC50 (pIC50) was less than 4.34.

As for `COc1ccc([C@@H]2Sc3ccccc3N(CCN(C)C)C(=O)[C@@H]2OC(C)=O)cc1`, the negative-log IC50 (pIC50) is less than 4.34.

In the case of `O=C(CCCN1CCC2(CC1)C(=O)NCN2c1ccccc1)c1ccc(F)cc1`, the pIC50 is less than 4.34.

`Cl.c1cc2c(c(N3CCNCC3)c1)OCCO2` had a negative-log IC50 (pIC50) of less than 4.34.

The compound `C=CC(=O)O` gave a pIC50 of less than 4.34.

Regarding `Cc1ccc(S(=O)(=O)NC(=O)NC2CCCC2)cc1`, the negative-log IC50 (pIC50) is less than 4.34.

Take `CN(CCOc1ccc(NS(C)(=O)=O)cc1)CCc1ccc(NS(C)(=O)=O)cc1`: the pIC50 is less than 4.34.

Compound `O=C(c1ccccc1)c1ccc2n1CCC2C(=O)O` (stereo unspecified) had a pIC50 of less than 4.34.

Turning to `CC1=C(/C=C/C(C)=C/C=C/C(C)=C/C=C/C=C(C)/C=C/C=C(C)/C=C/C2=C(C)C(=O)CCC2(C)C)C(C)(C)CCC1=O`, the pIC50 was less than 4.34.

For `O=C(NCCCN1CCOCC1)c1ccc(Cl)cc1`, the pIC50 was less than 4.34.

`CC(=O)Nc1ccc(C=NNC(N)=S)cc1` showed a pIC50 of less than 4.34.

Turning to `CCCOC(=O)c1ccc(O)cc1`, the pIC50 is less than 4.34.

With `CO[C@]12C[C@@H](COC(=O)c3cncc(Br)c3)CN(C)[C@@H]1Cc1cn(C)c3cccc2c13`, the negative logarithm of the IC50 (pIC50) is less than 4.34.

`C[N+](C)(C)CCOC(=O)C(O)(c1ccccc1)c1ccccc1.[I-]` gave a negative logarithm of the IC50 (pIC50) of less than 4.34.

For `CC(=O)Oc1ccc(C(c2ccc(OC(C)=O)cc2)c2ccccn2)cc1`, the pIC50 is less than 4.34.

As for `COc1ccc(C(=O)/C(Br)=C\C(=O)O)cc1`, the pIC50 is less than 4.34.

`CCCCC[C@H](O)/C=C/[C@@H]1[C@H]2C/C(=C/CCCC(=O)[O-])O[C@H]2C[C@H]1O.[Na+]` gave a negative logarithm of the IC50 (pIC50) of less than 4.34.

Take `CC[N+](C)(C)c1cccc(O)c1.[Cl-]`: the pIC50 is less than 4.34.

`COC1=CC=C2[C@H]3Cc4ccc(OC)c5c4[C@@]2(CCN3C)[C@H]1O5`: the negative-log IC50 (pIC50) was less than 4.34.

In turn, `C[N+](C)(C)CC(=O)O.[Cl-]` had a pIC50 of less than 4.34.

`CC(=O)OCC1=C(C(=O)O)N2C(=O)[C@@H](NC(=O)Cc3ccccc3)[C@H]2SC1` showed a negative-log IC50 (pIC50) of less than 4.34.

Turning to `CC(=O)OC[C@H]1O[C@@](COC(C)=O)(O[C@H]2O[C@H](COC(C)=O)[C@@H](OC(C)=O)[C@H](OC(C)=O)[C@H]2OC(C)=O)[C@@H](OC(C)=O)[C@@H]1OC(C)=O`, the pIC50 was less than 4.34.

Take `OC[C@H](CC)NC(=O)[C@@H]2/C=C1/c3cccc4N\C=C(\C[C@H]1N(C)C2)c34`: the pIC50 is less than 4.34.

The compound `BrCCCBr.CN(C)CCCCCCN(C)C` had a negative logarithm of the IC50 (pIC50) of less than 4.34.

Compound `COc1cc2[nH]c(=O)[nH]c(=O)c2cc1OC` showed a negative logarithm of the IC50 (pIC50) of less than 4.34.

On to `CCC(=O)c1ccc(O)cc1`, for which the pIC50 is less than 4.34.

As for `NS(=O)(=O)c1ccc(Cl)c(S(N)(=O)=O)c1`, the negative-log IC50 (pIC50) was less than 4.34.

In turn, `CCCC(=O)Nc1ccc(OCC(O)CNC(C)C)c(C(C)=O)c1.Cl` (stereo unspecified) had a pIC50 of less than 4.34.

Turning to `Cc1cc(C(=O)O)c(C)n1-c1cccc(C(=O)O)c1.O=C1C[C@@H]2OCC=C3CN4CC[C@]56c7ccccc7N1[C@H]5[C@H]2[C@H]3C[C@H]46`, the negative logarithm of the IC50 (pIC50) is less than 4.34.

For the compound `CC(=O)OCC(COC(C)=O)OC(C)=O`, the pIC50 is less than 4.34.

Consider `COc1cc(N)c(Cl)cc1C(=O)NC1CN2CCC1CC2.Cl` (stereo unspecified), for which the pIC50 is less than 4.34.

As to `CC(CCc1ccccc1)NC(C)C(O)c1ccc(O)cc1` (stereo unspecified), the negative logarithm of the IC50 (pIC50) is less than 4.34.

As to `CN(C)[C@@H]1C(O)=C(C(=O)NCN2CCCC2)C(=O)[C@@]2(O)C(O)=C3C(=O)c4c(O)cccc4[C@@](C)(O)C3C[C@@H]12.Cl` (stereo partly specified), the negative logarithm of the IC50 (pIC50) was less than 4.34.

`O=C(C3=CC=CC=C3)O[C@@H]1C[C@H](CC2)N(C)[C@H]2[C@H]1[C@@](OC)=O.Cl`: the pIC50 was less than 4.34.

For orientation: pIC50 means the negative decadic logarithm of the IC50, by convention in mol/L. Low readings indicate a high IC50, high ones a low IC50.

The values above are taken from the supplement of paper PMC3493320.
